Laboratory results from publication PMC8399565, “Fluorescence Cross-Correlation Spectroscopy Yields True Affinity and Binding Kinetics of Plasmodium Lactate Transport Inhibitors” (Pharmaceuticals, 2021).

Experiments:
PfFNT wt-GFP [1] = target: T1, PfFNT wt-GFP (Plasmodium falciparum, UniProt O77389); assay: FCCS equilibrium saturation binding to solubilized PfFNT wildtype; details: for Active Receptor (%): fraction of PfFNT-GFP involved in binding at saturation; for obtained concentration of complexes in saturation binding: same sample of solubilized membranes for both tracers
T1 construct: The DNA of full-length PfFNT from Plasmodium falciparum 3D7 was cloned as a C-terminal GFP fusion; expressed in transfected cells; intact cells for imaging, LMNG-solubilized membranes or lysates for FCCS
T1 sequence (O77389 whole entry, the tested form may be a part): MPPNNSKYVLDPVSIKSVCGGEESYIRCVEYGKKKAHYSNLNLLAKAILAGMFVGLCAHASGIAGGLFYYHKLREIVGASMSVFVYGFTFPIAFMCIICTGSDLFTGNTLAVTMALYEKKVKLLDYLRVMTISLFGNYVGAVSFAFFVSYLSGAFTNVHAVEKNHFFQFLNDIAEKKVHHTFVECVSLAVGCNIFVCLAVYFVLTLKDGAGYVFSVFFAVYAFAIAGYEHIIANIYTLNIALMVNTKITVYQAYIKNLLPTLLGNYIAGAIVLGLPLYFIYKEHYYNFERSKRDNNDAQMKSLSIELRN
Method: A total of 20 µL of solubilized membranes from HEK cells expressing PfFNT wildtype or G107S were transferred to a glass-bottom 384-well microtiter plate and analyzed for expression levels via GFP fluorescence intensity as well as diffusion times. This yielded a PfFNT protein concentration of 10 nM after membrane preparation and solubilization. The average dwell time was determined to 373 µs, which is in good agreement with membrane proteins of equal size. The signal fluctuations could be fitted to a 1-component diffusion model, indicating homogeneously monodisperse proteins (Figure S2).
Next, we determined inhibitor binding affinities for both PfFNT and its G107S mutant. Solubilized cell membranes containing PfFNT-GFP at a concentration of 10 nM were incubated for 1 h at ambient temperature with increasing concentrations of labeled inhibitor molecules to obtain saturation binding curves and to calculate the dissociation constant (KD) of the interactions. Equilibrium binding experiments were pipetted in biological triplicates and carried out and analyzed as described in Antoine et al..
A cell pellet was resuspended in 1 mL of ice-cold TBS (50 mM Tris-HCl (pH 7.4) and 150 mM NaCl) supplemented with cOmplete™ Protease Inhibitor Cocktail (cat. no 11697498001, Roche, Switzerland) and broken by sonication on ice, using an Ultrasonic homogenizer SONOPULS HD 2070 (Bandelin, Germany). Cell debris was removed by centrifugation for 5 min at 1100× g at 4 °C, and membranes were harvested from the cleared lysate by subsequent centrifugation at 21,000× g. The resulting pellet containing cellular membranes was lysed using a Dounce homogenizer. The receptor was solubilized by incubation in 1% LMNG (cat. no NG310, Anatrace, USA) or in another detergent (DDM, DM, CHAPS, CHS, LDAO) when conducting tests to determine the best solubilization conditions. The insolubilized membrane material was removed by centrifugation for 1 h at 21,000× g at 4 °C, and the supernatant was collected and directly subjected to FCCS analysis or stored at −80 °C.
(§1) FCCS measurements were conducted in 384-well glass-bottom plates (cat. no PS96B-G175, SWISSCI, Switzerland) using an Insight plate reader (Evotec Technologies, Germany) fitted with a U-Apo300 40x water immersion lens, NA 1.15 (Olympus, Japan). The 488 nm laser line of an argon-ion laser and the light of a 633 nm helium–neon laser were used for excitation. Fluorescence fluctuations were recorded for 8 s with 12 repetitions and analyzed afterward using FCS+plus Analyze 1.1P (Evotec technologies, Version 1.2.5g). FCCS analysis was carried out as described previously. Briefly, for measuring the dissociation constant (KD), a titration series of 12 dilutions was prepared, where the concentration of the lysates obtained from HEK cells expressing GFP-fusions of PfFNT WT and G107S was kept constant, and the concentration of the labeled binding partner (BH296-DY647 and BH267.meta-DY647, respectively) was varied. The IC50 values were calculated by plotting the concentration from the dual labeled complex against the concentration of the competitor titrated over a concentration range from 10 µM to 10 pM. Samples were incubated for 1 h at room temperature prior to FCCS measurements to allow the formation of drug target complexes. From the resulting IC50 values, the Ki values were obtained by application of the Cheng Prusoff equation [17]. To assess the rate constants, time-resolved measurements were carried out at different concentrations of the labeled ligand. […] All KD and IC50 values, as well as kinetic parameters, were determined from three independently repeated experiments. The figures show one representative measurement; however, the calculated KD, Ki, kon and koff values are presented as an average of the three measurements ± SD. Error bars denote ± SEM.

PfFNT wt-GFP [2] = target: T1, PfFNT wt-GFP; assay: Time-resolved FCCS binding kinetics
Method: To complete our biophysical interaction analysis, we determined the rate constants of both labeled inhibitors to PfFNT wildtype. This is of relevance because inhibitors with similar affinities but different association and dissociation rates can show different activity profiles. […] For measuring the kinetics of direct interactions between PfFNT and the labeled inhibitor molecules, we applied the target at a concentration of 10 nM and chose ligand concentrations that exceeded the number of target molecules by […]. In this way, we ensured that throughout the course of the kinetic measurement, the depletion of free ligands remained insignificant. First, time resolved binding curves were recorded for ligand concentrations of 148, 133, 115, 100, 81, 76, 44, 25 nM (BH296) and 120, 102, 76, 74, 65, 58, 46, 32 nM (BH267.meta), respectively, to obtain kobs values (Figure 5). Then kon and koff values were calculated by linear regression. Both inhibitors bind and dissociate with equal rate constants (Table 3) and are characterized by a rapid association. Equilibrium is reached within less than 1 min at nanomolar inhibitor concentrations. To cross-validate the reliability of our kinetic determinations, we compared the KD values derived from saturation binding assays with affinities deduced from the kinetic rate constants by dividing koff by kon.
Figure 5 Kinetic studies of the fluorescent probes BH296-DY647 and BH267.meta-DY647 with PfFNT-GFP by FCCS. Time resolved measurements of the interactions were carried out to obtain kobs-values. The kobs-values were plotted versus concentrations of the fluorescent probe. The solid line represents the best linear regression, and kon and koff of both fluorescent probes were estimated from the slope and y-intercept, respectively. kon and koff values of BH296-DY647 and BH267.meta-DY647 are summarized in Table 3.
as §1

O=C(/C=C(\O)C(F)(F)C(F)(F)F)c1cccnc1 [BH267.meta]
Kd (PfFNT wt-GFP [1]; fluorescent probe titrated against 10 nM PfFNT-GFP, 1% LMNG, 1 h ambient temperature, read-out: KD (equilibrium saturation binding)): 72 nM
Active Receptor (%) (PfFNT wt-GFP [1]): 100%
obtained concentration of complexes in saturation binding (PfFNT wt-GFP [1]): 6 nM
Kd (PfFNT wt-GFP [2]; koff divided by kon, read-out: KD (Kinetics)): 112 nM

CCN1/C(=C/C=C/C=C/C2=[N+](CC)c3ccc(S(=O)(=O)O)cc3C2(C)CCCC(=O)NCCOCCOCCOCCOCCC(=O)NCCCOc2ccc(C(=O)/C=C(\O)C(F)(F)C(F)(F)F)cc2)C(C)(C)c2cc(S(=O)(=O)[O-])ccc21 (stereo not shown) [BH296-DY647]
Kd (PfFNT wt-GFP [1]): 67 ± 6 nM
Kd (PfFNT wt-GFP [2]): 113 ± 2 nM
koff (PfFNT wt-GFP [2]): 0.0311 s⁻¹
kon (PfFNT wt-GFP [2]): 278000 M⁻¹ s⁻¹

O=C(C=C(O)C(F)(F)C(F)(F)F)c1ccc(O)cc1 [BH296, 4,4,5,5,5-pentafluoro-3-hydroxy-1-(4-hydroxyphenyl)pent-2-en-1-one]
Kd (PfFNT wt-GFP [1]): 67 nM
obtained concentration of complexes in saturation binding (PfFNT wt-GFP [1]): 3 nM
Kd (PfFNT wt-GFP [2]): 113 nM

CCN1/C(=C/C=C/C=C/C2=[N+](CC)c3ccc(S(=O)(=O)O)cc3C2(C)CCCC(=O)NCCOCCOCCOCCOCCC(=O)NCCCOc2ccc(C(=O)/C=C(\O)C(F)(F)C(F)(F)F)cn2)C(C)(C)c2cc(S(=O)(=O)[O-])ccc21 (stereo not shown) [BH267.meta-DY647]
Kd (PfFNT wt-GFP [1]): 72 nM
Active Receptor (%) (PfFNT wt-GFP [1]): 100%
Kd (PfFNT wt-GFP [2]): 112 ± 5 nM
koff (PfFNT wt-GFP [2]): 0.0297 s⁻¹
kon (PfFNT wt-GFP [2]): 268000 M⁻¹ s⁻¹
